Laboratory results from patent US11976075B2, “Inhibitors of the MYST family of lysine acetyl transferases” (Isosterix, Inc., priority 2022, dated 2024).
Like-named read-outs stand apart in the source and are kept apart here.

Molecular target: T1, Recombinant KAT6A/MOZ (488-778) protein (Homo sapiens, UniProt Q92794)
T1 construct: Recombinant KAT6A/MOZ (488-778) protein (Active motif, Catalog #81223); purchased Active Motif 81223
Assay: Kat6a AlphaLISA Inhibition Screening Assay
Assay type: biochemical
Protocol: The Kat6a inhibitory activity of test compounds was determined using an Alpha Screen-based detection method. The assay reactions were conducted in a volume of 10 μL in Alpha Plate, White 384 well plate (cat #6008280, Perkin Elmer). The enzymatic reactions were performed in assay buffer pH 8.0 (50 mM Tris-HCl, 0.1 mM EDTA, 0.01% Tween-20, 1 mM Dithiothreitol, 0.1% BSA (fatty acid free) and 330 nM TSA (Trichostatin A)). 10 μL reaction volume consisting of 25 nM of Recombinant KAT6A/MOZ (488-778) protein (Active motif, Catalog #81223), 400 nM Acetyl coenzyme A (Catalog #A2056, Sigma), 200 nM of Histone H3 peptide [(amino acids 1-21), biotin-labeled (BPS Biosciences, Catalog #52011,)] and a 10-point dose response curve for test/tool compounds were prepared. Enzyme and compounds solution were pre-incubated in assay plate for 60 or 10 min at room temperature then substrate and Acetyl coenzyme A solution were added to the plate. After addition, the plate was sealed with adhesive seals and incubated for 120 minutes at room temperature.
After 120 minutes of incubation, 5 μL (10 μg/mL) of AlphaLISA anti-acetyl-Lysine acceptor beads (Perkin Elmer, Catalog #AL143C) were added to the plate and it was incubated for 60 minutes at room temperature. Then 10 μL (10 μg/mL) of Alpha Streptavidin donor beads (Perkin Elmer, Catalog #6760002S) were added to the plate which was further incubated for 60 minutes at room temperature. After incubation, the alpha signal was recorded by using Perkin Elmer Envision multi-mode reader.
NA means the compound was not active at the concentration tested. […] NT means not tested.

[1] = 60′ pre-incubation, Table 2, read-out: Kat6A biochemical assay: IC50
[2] = 10′ pre-incubation, Table 2, read-out: Kat6A biochemical assay: IC50
[3] = 60′ pre-incubation, Table 3, read-out: Kat6A Biochemical assay: IC50
[4] = 10′ pre-incubation, Table 3, read-out: Kat6A Biochemical assay: IC50

T1 sequence (Q92794 488-778): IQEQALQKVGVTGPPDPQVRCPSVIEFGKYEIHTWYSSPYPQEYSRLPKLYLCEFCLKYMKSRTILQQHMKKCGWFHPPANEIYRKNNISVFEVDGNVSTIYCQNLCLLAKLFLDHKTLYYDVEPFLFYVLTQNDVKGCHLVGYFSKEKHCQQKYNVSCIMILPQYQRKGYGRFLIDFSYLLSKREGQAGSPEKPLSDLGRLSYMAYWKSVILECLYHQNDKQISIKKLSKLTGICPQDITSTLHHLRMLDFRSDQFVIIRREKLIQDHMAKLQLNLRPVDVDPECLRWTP

Structure (SMILES) | IC50 [1] [µM] | also measured
CC#CC(=O)NCc1cnn(Cc2cc(OC)c3c(NS(=O)(=O)c4ccccc4OC)noc3c2)c1 [Synthetic Example 57, N-[[1-[[4-methoxy-3-[(2-methoxyphenyl)sulfonylamino]-1,2-benzoxazol-6-yl]methyl]pyrazol-4-yl]methyl] but-2-ynamide] | ≤ 10 | 
C=CS(=O)(=O)NCc1ccn(Cc2cc(OC)c3c(NS(=O)(=O)CC4CCCCC4)noc3c2)n1 [Synthetic Example 24, N-((1-((3-((cyclohexylmethyl)sulfonamido)-4-methoxybenzo[d]isoxazol-6-yl)methyl)-1H-pyrazol-3-yl)methyl)ethenesulfonamide] | ≤ 10 | 
C=CC(=O)NCc1ccnc(-c2cc(C)cc(C(=O)NNS(=O)(=O)c3ccccc3F)c2)c1 [compound 12] |  | IC50 [2]: ≤ 10 µM
C#CC(=O)N1CCN(c2cccc(-c3cc4onc(NS(=O)(=O)c5c(OC)cccc5OC)c4cc3C)c2)CC1 [compound 120, 2,6-dimethoxy-N-(5-methyl-6-(3-(4-propioloylpiperazin-1-yl)phenyl)benzo[d]isoxazol-3-yl) benzenesulfonamide] |  | IC50 [3]: ≤ 10 µM
C#CC(=O)N1CCC(c2cccc(-c3cc(OC)c4c(NS(=O)(=O)c5c(OC)cccc5OC)noc4c3)c2)CC1 [compound 101, 2,6-dimethoxy-N-(4-methoxy-6-(3-(1-propioloylpiperidin-4-yl)phenyl)benzo[d]isoxazol-3-yl) benzenesulfonamide] |  | IC50 [3]: ≤ 10 µM
C#CC(=O)NCc1cnn(Cc2cc(OC)c3c(NS(=O)(=O)c4cc(CC)ccc4OC)noc3c2)c1 [compound 69, N-((1-((3-((5-ethyl-2-methoxyphenyl)sulfonamido)-4-methoxybenzo[d]isoxazol-6-yl)methyl)-1H-pyrazol-4-yl)methyl) propiolamide] | ≤ 10 | 
COc1cc(Cn2ccc(CN)n2)cc2onc(NS(=O)(=O)CC3CCCCC3)c12 [compound 128] |  | IC50 [4]: 20 to 50 µM
C=CC(=O)N1CCC(C(=O)NCc2ccc3cc(C(=O)NS(=O)(=O)c4ccccc4F)oc3c2)C1 (stereo not shown) [Synthetic Example 40, 1-acryloyl-N-((2-(((2-fluorophenyl)sulfonyl)carbamoyl)benzofuran-6-yl)methyl)pyrrolidine-3-carboxamide] |  | IC50 [2]: > 100 µM
COc1cc(Cn2cccn2)cc2c1c(NS(=O)(=O)c1ccccc1F)nn2C [compound 122, N-(6-((1H-pyrazol-1-yl)methyl)-4-methoxy-1-methyl-1H-indazol-3-yl)-2-fluorobenzenesulfonamide] |  | IC50 [4]: 20 to 50 µM
COc1cc(Cn2cc3c(n2)CN(C(=O)C#CCN(C)C)C3)cc2onc(NS(=O)(=O)CC3CCCCC3)c12 [Synthetic Example 3, 1-cyclohexyl-N-(6-((5-(4-(dimethylamino)but-2-ynoyl)-5,6-dihydropyrrolo[3,4-c]pyrazol-2(4H)-yl)methyl)-4-methoxybenzo[d]isoxazol-3-yl)methanesulfonamide] | ≤ 10 | 
C#CC(=O)N1CCc2nn(Cc3cc(OC)c4c(NS(=O)(=O)c5cc(CC)ccc5OC)noc4c3)cc2C1 [105b, 5-ethyl-2-methoxy-N-(4-methoxy-6-((5-propioloyl-4,5,6,7-tetrahydro-2H-pyrazolo[4,3-c]pyridin-2-yl)methyl)benzo[d]isoxazol-3-yl)benzenesulfonamide] |  | IC50 [3]: ≤ 10 µM
C#CC(=O)N1CCN(c2cccc(-c3cc(OC)c4c(NS(=O)(=O)c5c(OC)cccc5OC)noc4c3)c2)CC1 [compound 71, 2,6-dimethoxy-N-(4-methoxy-6-(3-(4-propioloylpiperazin-1-yl)phenyl)benzo[d]isoxazol-3-yl) benzenesulfonamide] | ≤ 10 | 
COc1ccccc1S(=O)(=O)Nc1noc2cc(Cn3cc(CNC(=O)C#CCO)cn3)cc(OC)c12 [Synthetic Example 53, 4-hydroxy-N-((1-((4-methoxy-3-((2-methoxyphenyl)sulfonamido)benzo[d]isoxazol-6-yl)methyl)-1H-pyrazol-4-yl)methyl) but-2-ynamide] | ≤ 10 | 
C#CC(=O)N1CCN(c2cccc(-c3cc(OC)c4c(NS(=O)(=O)NC5CCCCC5)noc4c3)c2)CC1 [compound 111] |  | IC50 [3]: ≤ 10 µM
C#CC(=O)N1CCN(C(=O)c2cnn(Cc3cc(OC)c4c(NS(=O)(=O)c5cc(CC)ccc5OC)noc4c3)c2)CC1 [compound 95, 5-ethyl-2-methoxy-N-(4-methoxy-6-((4-(4-propioloylpiperazine-1-carbonyl)-1H-pyrazol-1-yl)methyl)benzo[d]isoxazol-3-yl)benzenesulfonamide] |  | IC50 [3]: ≤ 10 µM
C#CC(=O)NCCOCc1cc(OC)c2c(NS(=O)(=O)c3cc(CC)ccc3OC)noc2c1 [compound 88, N-(2-((3-((5-ethyl-2-methoxyphenyl)sulfonamido)-4-methoxybenzo[d]isoxazol-6-yl)methoxy)ethyl)propiolamide] |  | IC50 [3]: ≤ 10 µM
C#CC(=O)N1CCN(c2cccc(-c3cc(OC)c4c(NS(=O)(=O)c5c(OC)cccc5OC)noc4n3)c2)CC1 [compound 113, 2,6-dimethoxy-N-(4-methoxy-6-(3-(4-propioloylpiperazin-1-yl)phenyl)isoxazolo[5,4-b]pyridin-3-yl)benzenesulfonamide] |  | IC50 [3]: ≤ 10 µM
COc1ccccc1S(=O)(=O)Nc1noc2cc(Cn3cc(CNS(=O)(=O)c4ccc(F)cc4)cn3)cc(OC)c12 [compound 78, N-(6-((4-(((4-fluorophenyl)sulfonamido)methyl)-1H-pyrazol-1-yl)methyl)-4-methoxybenzo[d]isoxazol-3-yl)-2-methoxybenzenesulfonamide] |  | IC50 [3]: ≤ 10 µM
COc1cc(Cn2cc(C#N)cn2)cc2onc(NS(=O)(=O)CC3CCCCC3)c12 [compound 126, N-(6-((4-cyano-1H-pyrazol-1-yl)methyl)-4-methoxybenzo[d]isoxazol-3-yl)-1-cyclohexylmethanesulfonamide] |  | IC50 [4]: ≤ 10 µM
C=CC(=O)NCc1ccc2cc(C(=O)NS(=O)(=O)c3ccccc3F)oc2c1 [Synthetic Example 10, 6-(acrylamidomethyl)-N-((2-fluorophenyl)sulfonyl)benzofuran-2-carboxamide] |  | IC50 [2]: ≤ 10 µM

Now from value to compound, other results behind:

IC50 [1] [µM] | Structure (SMILES) | also measured
≤ 10 | C=CC(=O)N1C[C@H]2CN(Cc3cc(OC)c4c(NS(=O)(=O)c5ccccc5OC)noc4c3)C[C@H]2C1 [Synthetic Example 50, N-(6-(((3aR,6aS)-5-acryloylhexahydropyrrolo[3,4-c]pyrrol-2(1H)-yl)methyl)-4-methoxybenzo[d]isoxazol-3-yl)-2-methoxybenzenesulfonamide] | 
≤ 10 | COc1ccccc1S(=O)(=O)Nc1noc2cc(Cn3cc(CNS(=O)(=O)c4c(F)c(F)c(F)c(F)c4F)cn3)cc(OC)c12 [compound 70, 2,3,4,5,6-pentafluoro-N-((1-((4-methoxy-3-((2-methoxyphenyl)sulfonamido)benzo[d]isoxazol-6-yl)methyl)-1H-pyrazol-4-yl)methyl)benzenesulfonamide] | 
≤ 10 | C=CS(=O)(=O)NCc1ccn(Cc2cc(OC)c3c(NS(=O)(=O)c4c(OC)cccc4OC)noc3c2)n1 [Synthetic Example 19, 2,6-dimethoxy-N-(4-methoxy-6-((3-(vinylsulfonamidomethyl)-1H-pyrazol-1-yl)methyl)benzo[d]isoxazol-3-yl)benzenesulfonamide] | 
≤ 10 | C=CC(=O)NCc1ccn(Cc2cc(OC)c3c(NS(=O)(=O)c4ccccc4F)noc3c2)n1 [Synthetic Example 18, N-((1-((3-((2-fluorophenyl)sulfonamido)-4-methoxybenzo[d]isoxazol-6-yl)methyl)-1H-pyrazol-3-yl)methyl)acrylamide] | 
≤ 10 | C=CC(=O)NCc1cnn(Cc2cc(OC)c3c(NS(=O)(=O)CC4CCCCC4)noc3c2)c1 [Synthetic Example 4, N-((1-((3-((cyclohexylmethyl)sulfonamido)-4-methoxybenzo[d]isoxazol-6-yl)methyl)-1H-pyrazol-4-yl)methyl)acrylamide] | 
≤ 10 | C=CS(=O)(=O)N1CCC(c2ccnc(-c3cc(C)cc(C(=O)NNS(=O)(=O)c4ccccc4F)c3)c2)CC1 [Synthetic Example 42, 2-fluoro-N′-(3-methyl-5-(4-(1-(vinylsulfonyl)piperidin-4-yl)pyridin-2-yl)benzoyl)benzenesulfonohydrazide] | 
≤ 10 | COc1cc(Cn2ncc3c2CNC3)cc2onc(NS(=O)(=O)CC3CCCCC3)c12 [Synthetic Example 28A, 1-cyclohexyl-N-(6-((5,6-dihydropyrrolo[3,4-c]pyrazol-1(4H)-yl)methyl)-4-methoxybenzo[d]isoxazol-3-yl)methanesulfonamide] | 
≤ 10 | C#CC(=O)NCc1ccnc(-c2cc(C)cc(C(=O)NNS(=O)(=O)c3cccc(C(=O)NC)c3)c2)c1 [Synthetic Example 55, N-methyl-3-[[[3-methyl-5-[4-[(prop-2-ynoylamino)methyl]-2-pyridyl]benzoyl]amino]sulfamoyl] benzamide] | 
